The results in this text go back to ChEMBL document CHEMBL1151205, “Terpene isocyanides, isocyanates, and isothiocyanates from the Okinawan marine sponge Stylissa sp” (J Nat Prod, 2004).

SMILES strings stand for the structures.

In the test the test system is HeLa. In words: Cytotoxicity against human HeLa cells by WST-8 assay. Format: functional, cell-based. For orientation: Tetrazolium assays rely on reduction of a dye to a coloured formazan, in cell work by metabolically active cells.
`C[C@H]1C[C@H]2CC(C)(C)CC3=CC[C@@]4(N=C=S)[C@@H]([C@@H]1CC[C@@H]4C)[C@@H]32`: the half-maximal inhibitory concentration (IC50) (usually the midpoint of a concentration-inhibition curve) worked out at 88.7 µM. This counts as double-digit micromolar.
With `C[C@H]1C[C@H]2CC(C)(C)CC3=CC[C@@]4(N=C=O)[C@@H]([C@@H]1CC[C@@H]4C)[C@@H]32` the figure was 38.3 µM; with `CC1=C[C@@H]2[C@@H](CC1)[C@@](C)(N=C=S)CC[C@H]2C(C)C` (relative stereo), 73.7 µM.
The compound `[C-]#[N+][C@@]1(C)CC[C@H]2[C@@H]3[C@@H](C(C)=CC[C@@H]31)[C@@H](C=C(C)C)C[C@@H]2C` (relative stereo) yielded a concentration for half-maximal inhibition (IC50) of 20 µM.
Under `C[C@H]1CC[C@]23[C@H]1[C@H]2[C@@H](C(C)(C)N=C=S)CC[C@@H]3C` (relative stereo) stands 57.8 µM.
Under `[C-]#[N+][C@@]12CC[C@H](C)C3=C(C=C(C)C)C[C@H](C)[C@@H](CC[C@@H]1C)[C@@H]32` (relative stereo) stands 11.2 µM.
